Experimental findings from patent publication US6528309B2, “Vacuum-mediated desiccation protection of cells” (The Regents of the University of California, priority 2001, dated 2003) are described below.

For data set [1], the system named is Basinger human fibroblasts. In words: Drying tolerance of Basinger human fibroblasts with disaccharides and polyols (trypan blue exclusion). It is filed as cell-based. Conditions: for Cell Culture Survival (%): concentration (50 mM or 10% solution), vacuum; for effectiveness in protecting the viability of the cells (in words): trypan blue exclusion. The method, then:
(§1) Trypan blue exclusion was done by adding 10 μl of 0.4% trypan blue in 0.85% NaCl (Gibco BRL) to 10 μl of a single cell suspension of trypsinized cells and counting the number of trypan blue positive and negative cells. Colony assays were done by harvesting adherent cells 8-12 hours after rehydration, counting by hemacytometer, and plating either 200 or 300 cells in a 10 cm tissue culture dish. The same number of cells from a non-desiccated control were plated in parallel. Approximately 1 week later, the plates were stained with Giemsa and the colonies were counted.

Data set [2] concerns 12F cells. In words: Desiccation tolerance of 12F cells at different storage temperatures, with trehalose (trypan blue exclusion / FACS). It counts as cell-based, human. Conditions: for Cell Survival: trehalose 50 mM by thermal shock, dried under vacuum. The method, then:
as §1
For thermal shock experiments, trehalose solution (50 mM final concentration) in DMEM and 10% FBS, was added to a pellet of 1×10^6 cells to produce a cell suspension which was then incubated on ice for 5 minutes, and then for 10 minutes in a 37° C. water bath (Daw et al., Cryobiol., 10:126-133 [1973]; and Moore et al., Cell 54:777-785 [1988]). This cycle was repeated twice. For adherent cells, the cells were plated in 6-well plates and grown to 90-95% confluence prior to thermal shock with 50 mM trehalose as described above. These methods are described in more detail in the following Examples. However, it is not intended that the present invention be limited to any particular temperatures used for thermal shock, as it is known in the art that in some cases, cells can be shocked using different temperatures.
In these experiments, the effects of temperature and drying on cell survival were investigated. In addition, the effects of the presence of trehalose on cell survival under different conditions of temperature and drying were investigated. Ten 6-well plates of 12F cells were prepared at about 90-95 confluence. The day prior to the beginning of the drying period, five plates were exposed to thermal shock to introduce trehalose into the cells (as described above). On the first day of the drying period, all of the plates were dried, and the plates were incubated in pairs (i.e., one with trehalose and one without trehalose) at −70° C., −20° C., room temperature, and 37° C., for 4 days.
In additional experiments to determine the effect of temperature on the ability of cells to withstand desiccation, 6-well plates with 12F cells were prepared at approximately 90% confluence, dried under vacuum at room temperature as described above, and stored at −70° C., −20° C., 4° C., 20° C., and 37° C. for 3 days. In these experiments, two plates were used, one included trehalose (50 mM) introduced into the cells using thermal shock, as described above. […] The cells were then rehydrated and the viability was determined by trypan blue exclusion. […] The optimum survival temperature was determined to be about 20° C. (i.e., approximately room temperature). At the other temperatures examined, there were almost no viable cells remaining, as determined by trypan blue exclusion, and none were able to grow and form colonies (results not shown). In these experiments, the presence (“Tre(+)”)/absence (“Tre(−)”) of trehalose appeared to have no impact on the optimum temperature.
No colonies were ever grown from cells maintained in the desiccated state at temperatures other than approximately 20° C.

In data set [3] the test system is Basinger cells. In words: Colony (plating efficiency) assay after desiccation and rehydration. It is filed as cell-based, human. To be noted: for ability to mediate desiccation tolerance, singly and together (in words): 3% glycerol and/or 50 mM trehalose, thermal shock, vacuum (FIG. 8); for ability of the cells to form colonies following rehydration: results not shown. The method, then: as §1
To definitively determine the effect of different desiccation protocols, an assay based on colony formation (i.e., “plating efficiency”) was used, as described in the following Examples. In this assay, rehydrated cells were replated at low density and the number of distinct colonies counted. In this way, only rehydrated cells able to undergo cell division were counted as “viable.” The pattern of viability determined by trypan blue exclusion and colony assay were the same (e.g., compare FIG. 2A with FIG. 2B), validating the use of trypan blue to measure the effect of various treatments on cell viability.
In subsequent experiments, trehalose was tested in combination with glycogen, glycerol, and sucrose. As for some anhydrobiotic organisms (e.g., Artemia cysts) glycerol accounts for about 4% of their dry weight and trehalose constitutes up to about 14% of their dry weight, these experiments were conducted to determine the effects of these compounds on cell survival. In this Figure, results are shown for Basinger cells plated in 6-well plates and exposed to 3% glycerol and/or 50 mM trehalose immediately prior to undergoing thermal shock and desiccation under vacuum. After the drying period was complete, media were added and the cells were incubated overnight. The following day, the cells were harvested and plated for viability determination using the colony assay described herein.

In data set [4] the test system is 12F cells. In words: Preliminary vacuum drying experiments. It is filed as cell-based.
The test system of data set [5] is 12F cells. In words: Effect of trehalose and vacuum on desiccation tolerance of 12F cells. It is filed as cell-based, human. Conditions: trehalose 50 mM, three days dried. The method, then: In this Example, experiments conducted to determine the effect of trehalose and vacuum on desiccation tolerance of 12F cells are described. The 12F cells were prepared at 95% confluence in five 6-well plates. On plates 1 (V+T+) and 3 (V−T+), trehalose (50 mM final concentration) was introduced by thermal shock, as described in above. Medium was then removed from each of the wells, and Plates 1 (V+T+) and 2 (V+T−) were vacuum sealed using the Magic Vac vacuum packaging system (Flaem Nuova) and maintained at room temperature. Plates 3 and 4 were sealed in bags without vacuum and also maintained at room temperature. Three days later, medium (DMEM) was added to the plates, and the plates incubated at 37° C. with 10% CO2 overnight. The next day, the cells were harvested and stained with trypan blue in order to determine the dead/live ratio.
In some experiments, the samples were divided. One portion of the sample was used in the analysis of live/dead cells using trypan blue, as described above, and the second portion was plated into fresh culture media at 25× dilution and incubated until cells grew in the culture. This allowed counting of the live cells based on their “plating efficiency.” This was considered to be the best way to estimate the ratio of dead to alive cells.

Data set [6] relates to Adherent Basinger cells. In words: Trehalose dose response for desiccation tolerance and cytotoxicity. To be noted: 24 hours incubation. It counts as cell-based, human. The method, then:
In these experiments, the effects of trehalose concentration on desiccation tolerance were determined. Adherent Basinger cells were prepared in 6-well plates, and incubated at 37° C., with 10% CO2. When the cells reached 65-70% confluence, the cells were incubated with varying concentrations of trehalose (10 mM, 25 mM, 50 mM, 150 mM, and 500 mM) for 24 hours. The cells were exposed to thermal shock and desiccated as described above.

The test system of data set [7] is Basinger human fibroblasts. In words: Cell survival after drying with trehalose combinations and trehalose alone. It is filed as cell-based. The method, then: In this Example, experiments to observe the effects of various combinations of sugars on cell viability are described. The results obtained for these combinations were then compared with the results obtained for trehalose alone. The combinations used were trehalose with glycerol, and trehalose with mannitol. Controls were also tested with no sugars, and trehalose alone. In these experiments Basinger human fibroblasts were used.

Data set [8] concerns Basinger fibroblast cells. In words: Cytotoxicity of carbohydrates and polyols (maximum usable concentration). The method, then:
To determine whether any of these molecules have properties that would allow them to substitute for trehalose in promoting desiccation tolerance in mammalian cells, a number of carbohydrates and polyols were systematically studied. Each was tested initially to determine the maximum concentration at which they could be used without causing cytotoxicity. The ability of the different molecules to mediate desiccation tolerance was then tested at the optimal concentration for each.
Thus, in these experiments, Basinger fibroblast cells were tested in long term desiccation experiments (i.e., longer than 5 days of drying). In these experiments, Basinger cells at approximately 75% confluence were exposed to a polyol or disaccharide for 12 hours prior to removal of medium and desiccation under vacuum. Thermal shock was used to introduce the disaccharides or polyols into the cells to produce equal concentrations final of 50 mM in the cultures (with equal numbers of cells). […] FIG. 7 also provides a graphic representation of the results for various test disaccharides and polyols.

Data set [9] relates to 12F and Basinger cells. Conditions: human.

Like-named read-outs stand apart in the source and are kept apart here. A value given as a limit tells only on which side of the number the result lay.

Regarding `OC[C@H]1O[C@H](O[C@H]2[C@H](O)[C@@H](O)C(O)O[C@@H]2CO)[C@H](O)[C@@H](O)[C@@H]1O` (mixture of isomers) [Maltose], the “Cell Culture Survival (%)” value in data set [1] (Day 3 of drying) is 31%; in data set [1] (Day 4 of drying) it was 17%; in data set [1] (Day 5 of drying), 4.2%; in data set [1] (Day 6 of drying) it was 2.5%.
Regarding `OC[C@@H](O)[C@@H](O)[C@H](O)[C@H](O)CO` [Mannitol], the “Cell Culture Survival (%)” value in [1] (Day 3 of drying) stood at 32%; in data set [1] (Day 4 of drying), 11%; in data set [1] (Day 5 of drying), 3.1%; in [1] (Day 6 of drying), 5.4%.
With `OC[C@@H](O)[C@@H](O)[C@H](O)[C@@H](O)CO` [Sorbitol], the “Cell Culture Survival (%)” value in [1] (Day 3 of drying) came out at 29%; in [1] (Day 4 of drying), 8%; in [1] (Day 5 of drying), 3.1%; in data set [1] (Day 6 of drying), 0.8%.
As for `OC[C@H]1O[C@@](CO)(O[C@H]2O[C@H](CO)[C@@H](O)[C@H](O)[C@H]2O)[C@@H](O)[C@@H]1O` [Sucrose], the “Cell Culture Survival (%)” value in data set [1] (Day 3 of drying) turned out to be 39%; in data set [1] (Day 4 of drying), 28%; in data set [1] (Day 5 of drying) it was 9.1%; in data set [1] (Day 6 of drying) it was 7.2%. The “effectiveness in protecting the viability of the cells (in words)” value (“effectiveness” for short) in [1] was “as effective as trehalose”.
On to `OC[C@H]1O[C@H](O[C@H]2O[C@H](CO)[C@@H](O)[C@H](O)[C@H]2O)[C@H](O)[C@@H](O)[C@@H]1O` [Trehalose, D (+) trehalose dihydrate], for which the “cells appearing to be "live" (FACS)” value in data set [2] (dried in the presence of trehalose, incubated at −70° C., no growth upon plating) is “about 4%”. Besides, the “survival rate (in words)” value in data set [2] (incubated at room temperature in the presence of trehalose) is listed as “very high”. Also, the “Cell Survival” value in [2] (storage at RT (room temperature)) came out at 34%; in data set [2] (storage temperature 4° C.), 2.8%; in data set [2] (storage temperature 37° C.), 0.4%; in data set [2] (storage temperature −20° C.) it was 0.7%; in [2] (storage temperature −70° C.), 4%; in data set [7] (Day 3) it was 7.5. Also, the “Cell Survival” value is reported as 0.8 in [7] (Day 4), 2.2 in [7] (Day 5) and 1.5 in [7] (Day 6). In addition, the “ability to mediate desiccation tolerance, singly and together (in words)” value in data set [3] is on record as “roughly similar”. In addition, the “ability of the cells to form colonies following rehydration” value in data set [3] is “able to maintain cellular viability”. Moreover, the “Cell Culture Survival (%)” value in data set [1] (Day 3 of drying) is recorded as 45%; in data set [1] (Day 4 of drying), 38%; in data set [1] (Day 5 of drying), 12%; in data set [1] (Day 6 of drying), 10.5%. Besides, the “trehalose concentration at which cytotoxic effects were observed” value in [4] is “more than 50 mM”. Moreover, the “survival rate compared to the controls (in words)” value in data set [5] is “much higher survival rate”. In addition, the “trehalose concentration resulting in obvious cytotoxicity” value in data set [6] is “above 150 mM”. In data set [6] (thermal shock, desiccation, 10-500 mM tested), the “optimal concentration of trehalose for desiccation tolerance” value is recorded as 50 mM.
For `OCC(O)CO` [glycerol], the optimum concentration in data set [8] is recorded as 3%. Also, the “concentration with long-term cytotoxic effect” value in [8] (human) is reported as “above 4%”. Moreover, the “concentration found to be toxic (very low survival, no growth upon passage)” value in data set [8] (human, 12 h) was at least 5%. The “ability to mediate desiccation tolerance, singly and together (in words)” value in data set [3] is “roughly similar”. Moreover, the “ability of the cells to form colonies following rehydration” value in [3] is listed as “able to maintain cellular viability”. Also, the “Cell Culture Survival (%)” value in [1] (Day 3 of drying) came to 2.6%; in data set [1] (Day 4 of drying), 4.8%; in data set [1] (Day 5 of drying), 0.7%; in [1] (Day 6 of drying), 3.1%. For the same molecule, in data set [9], the “concentration toxic for cells” value was “above 5%”.
With Dextran, the “concentration found to be toxic (very low survival, no growth upon passage)” value in data set [8] is reported as at least 5%. Also, the “Cell Culture Survival (%)” value is listed as 0.9% in data set [1] (Day 3 of drying), 2.4% in data set [1] (Day 4 of drying), 1.7% in [1] (Day 5 of drying) and 0.8% in [1] (Day 6 of drying). Besides, the “effectiveness” value in [1] is “completely ineffective”.
For Glycogen, the “Cell Culture Survival (%)” value was 40.6% in [1] (Day 3 of drying), 21.5% in [1] (Day 4 of drying), 14% in [1] (Day 5 of drying) and 9.5% in data set [1] (Day 6 of drying). Also, the “effectiveness” value in [1] is “almost equally as effective”.
